BindingDB's records for patent US20250387388 (Medinno Pharmaceutical Technology (Zhuhai) Co., 2025)

Tests used:
[1] = molecular target: BDNF/NT-3 growth factors receptor (Homo sapiens, UniProt Q16620); experiment: Inhibitory Activity of Compounds on TRKA, TRKB and TRKC
[2] = molecular target: High affinity nerve growth factor receptor (Homo sapiens, UniProt P04629); experiment: as above
[3] = molecular target: NT-3 growth factor receptor (Homo sapiens, UniProt Q16288); experiment: as above
[4] = molecular target: Proto-oncogene tyrosine-protein kinase receptor Ret (Homo sapiens, UniProt P07949); experiment: Inhibitory Activity of Compounds on RET Kinase
Sequence of Proto-oncogene tyrosine-protein kinase receptor Ret (P07949 whole entry): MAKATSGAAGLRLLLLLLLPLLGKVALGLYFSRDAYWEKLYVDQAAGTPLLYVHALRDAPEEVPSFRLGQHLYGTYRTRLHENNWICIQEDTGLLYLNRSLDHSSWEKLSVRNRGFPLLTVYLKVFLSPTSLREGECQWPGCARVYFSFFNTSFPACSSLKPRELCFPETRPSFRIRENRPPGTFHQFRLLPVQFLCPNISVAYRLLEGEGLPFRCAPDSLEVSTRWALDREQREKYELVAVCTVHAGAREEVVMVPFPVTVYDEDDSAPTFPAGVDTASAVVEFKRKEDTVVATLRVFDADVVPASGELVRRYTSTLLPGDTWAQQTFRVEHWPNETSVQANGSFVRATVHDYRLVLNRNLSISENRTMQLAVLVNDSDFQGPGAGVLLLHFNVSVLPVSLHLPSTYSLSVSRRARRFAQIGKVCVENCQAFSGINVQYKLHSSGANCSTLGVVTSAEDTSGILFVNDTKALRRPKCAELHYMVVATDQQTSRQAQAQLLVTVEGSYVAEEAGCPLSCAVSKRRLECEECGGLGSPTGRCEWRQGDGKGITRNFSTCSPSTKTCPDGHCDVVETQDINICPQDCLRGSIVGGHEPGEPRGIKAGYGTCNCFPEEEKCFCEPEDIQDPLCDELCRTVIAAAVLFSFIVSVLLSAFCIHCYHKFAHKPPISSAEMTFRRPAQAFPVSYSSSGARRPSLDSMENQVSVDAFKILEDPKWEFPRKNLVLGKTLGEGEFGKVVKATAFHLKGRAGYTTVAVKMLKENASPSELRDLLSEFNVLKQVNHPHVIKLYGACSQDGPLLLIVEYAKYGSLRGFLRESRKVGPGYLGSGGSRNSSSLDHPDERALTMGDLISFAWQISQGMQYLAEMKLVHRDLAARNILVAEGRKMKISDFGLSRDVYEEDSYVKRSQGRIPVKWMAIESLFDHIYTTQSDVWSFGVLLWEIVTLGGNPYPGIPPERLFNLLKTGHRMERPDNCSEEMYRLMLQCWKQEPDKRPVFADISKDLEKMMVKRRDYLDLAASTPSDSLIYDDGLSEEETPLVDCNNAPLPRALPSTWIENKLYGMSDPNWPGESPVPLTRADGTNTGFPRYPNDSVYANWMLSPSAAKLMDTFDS

Sequence of NT-3 growth factor receptor (Q16288 whole entry): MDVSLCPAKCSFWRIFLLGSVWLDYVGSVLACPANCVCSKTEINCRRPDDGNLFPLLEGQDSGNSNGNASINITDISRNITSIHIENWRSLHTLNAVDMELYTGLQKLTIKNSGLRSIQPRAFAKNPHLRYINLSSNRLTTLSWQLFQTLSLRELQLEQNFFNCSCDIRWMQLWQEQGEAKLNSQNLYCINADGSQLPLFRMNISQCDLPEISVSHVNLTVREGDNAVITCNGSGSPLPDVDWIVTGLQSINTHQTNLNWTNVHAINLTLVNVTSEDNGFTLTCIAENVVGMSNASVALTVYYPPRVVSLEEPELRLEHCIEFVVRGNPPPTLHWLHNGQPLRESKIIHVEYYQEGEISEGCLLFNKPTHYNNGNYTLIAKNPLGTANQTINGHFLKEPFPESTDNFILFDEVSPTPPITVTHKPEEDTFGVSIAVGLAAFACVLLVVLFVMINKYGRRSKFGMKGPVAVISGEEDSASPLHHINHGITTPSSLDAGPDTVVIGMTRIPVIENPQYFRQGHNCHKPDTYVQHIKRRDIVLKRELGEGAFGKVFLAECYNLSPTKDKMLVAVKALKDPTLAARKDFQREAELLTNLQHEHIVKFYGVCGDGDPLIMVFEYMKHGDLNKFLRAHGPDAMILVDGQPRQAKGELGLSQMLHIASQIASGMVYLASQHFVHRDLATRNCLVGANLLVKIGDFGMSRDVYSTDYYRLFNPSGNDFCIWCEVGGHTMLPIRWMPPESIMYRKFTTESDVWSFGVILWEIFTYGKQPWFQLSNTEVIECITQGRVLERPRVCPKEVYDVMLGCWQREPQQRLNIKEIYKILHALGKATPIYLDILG
Sequence of BDNF/NT-3 growth factors receptor (Q16620 whole entry): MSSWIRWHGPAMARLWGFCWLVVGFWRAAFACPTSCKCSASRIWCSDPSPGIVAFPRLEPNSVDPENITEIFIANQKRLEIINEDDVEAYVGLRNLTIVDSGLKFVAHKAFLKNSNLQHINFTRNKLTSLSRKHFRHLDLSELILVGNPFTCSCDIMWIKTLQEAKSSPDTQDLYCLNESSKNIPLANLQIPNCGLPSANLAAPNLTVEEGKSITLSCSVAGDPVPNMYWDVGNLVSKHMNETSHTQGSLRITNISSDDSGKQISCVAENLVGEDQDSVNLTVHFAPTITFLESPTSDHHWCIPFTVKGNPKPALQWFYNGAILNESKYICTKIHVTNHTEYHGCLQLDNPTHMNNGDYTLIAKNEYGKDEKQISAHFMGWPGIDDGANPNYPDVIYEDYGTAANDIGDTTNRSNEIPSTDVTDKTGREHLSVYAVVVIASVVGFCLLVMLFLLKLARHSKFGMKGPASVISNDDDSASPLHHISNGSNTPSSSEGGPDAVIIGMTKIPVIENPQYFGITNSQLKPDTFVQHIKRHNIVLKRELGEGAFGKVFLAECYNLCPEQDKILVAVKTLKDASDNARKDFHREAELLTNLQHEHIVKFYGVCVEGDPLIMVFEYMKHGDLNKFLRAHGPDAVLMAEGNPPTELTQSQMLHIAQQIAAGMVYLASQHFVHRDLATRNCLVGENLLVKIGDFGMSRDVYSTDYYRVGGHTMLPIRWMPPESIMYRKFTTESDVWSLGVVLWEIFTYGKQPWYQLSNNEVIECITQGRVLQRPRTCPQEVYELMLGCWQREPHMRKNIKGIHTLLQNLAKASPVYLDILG
Sequence of High affinity nerve growth factor receptor (P04629 whole entry): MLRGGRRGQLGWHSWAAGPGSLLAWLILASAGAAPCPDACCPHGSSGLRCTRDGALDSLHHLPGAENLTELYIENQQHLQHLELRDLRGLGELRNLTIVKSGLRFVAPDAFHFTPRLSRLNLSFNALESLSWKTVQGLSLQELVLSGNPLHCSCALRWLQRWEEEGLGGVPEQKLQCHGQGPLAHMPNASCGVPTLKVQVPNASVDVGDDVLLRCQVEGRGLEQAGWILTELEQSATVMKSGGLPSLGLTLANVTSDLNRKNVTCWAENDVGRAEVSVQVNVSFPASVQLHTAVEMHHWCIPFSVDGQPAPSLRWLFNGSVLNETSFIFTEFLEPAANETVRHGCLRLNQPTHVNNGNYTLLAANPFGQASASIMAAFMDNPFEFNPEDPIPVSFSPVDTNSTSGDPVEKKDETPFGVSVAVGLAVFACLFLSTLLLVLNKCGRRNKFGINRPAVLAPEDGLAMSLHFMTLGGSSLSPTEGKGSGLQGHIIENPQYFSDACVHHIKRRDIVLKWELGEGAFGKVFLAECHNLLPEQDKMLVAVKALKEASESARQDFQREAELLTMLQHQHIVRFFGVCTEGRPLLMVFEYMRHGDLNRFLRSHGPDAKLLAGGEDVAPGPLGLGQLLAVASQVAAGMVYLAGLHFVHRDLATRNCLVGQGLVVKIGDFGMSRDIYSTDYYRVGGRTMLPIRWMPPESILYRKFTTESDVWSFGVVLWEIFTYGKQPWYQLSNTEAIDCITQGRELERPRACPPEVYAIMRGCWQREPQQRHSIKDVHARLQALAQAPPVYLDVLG

IC50 [1]	IC50 [2]	IC50 [3]	IC50 [4]	SMILES
6.14 nM	5.76 nM	2.2 nM	–	CCc1cc(O)c(F)cc1-c1ccc2c(-c3nc4c([nH]3)CN(c3nc(N5CCOCC5)cnc3C(=O)c3ncc(N5CCOCC5)nc3N3Cc5nc(-c6n[nH]c7cc(-c8cc(F)c(O)cc8CC)ccc67)[nH]c5C3)C4)n[nH]c2c1 [US20250387388, Compound MDI-201]
5.86 nM	2.82 nM	1.49 nM	–	CCc1cc(O)c(F)cc1-c1ccc2c(-c3nc4c([nH]3)CN(C3CCCN3C(=O)N3CCCC3N3Cc5nc(-c6n[nH]c7cc(-c8cc(F)c(O)cc8CC)ccc67)[nH]c5C3)C4)n[nH]c2c1 (stereo not drawn) [US20250387388, Compound MDI-231]
30.4 nM	9.01 nM	6.32 nM	–	CCc1cc(O)c(F)cc1-c1ccc2c(-c3nc4c([nH]3)CN(C3CCCCN3C(=O)N3CCCCC3N3Cc5nc(-c6n[nH]c7cc(-c8cc(F)c(O)cc8CC)ccc67)[nH]c5C3)C4)n[nH]c2c1 (stereo not drawn) [US20250387388, Compound MDI-233]
1.27 nM	1.07 nM	0.65 nM	–	CCc1cc(O)c(F)cc1-c1ccc2c(-c3nc4c([nH]3)CN(C3CN(C(=O)N5CCOC(N6Cc7nc(-c8n[nH]c9cc(-c%10cc(F)c(O)cc%10CC)ccc89)[nH]c7C6)C5)CCO3)C4)n[nH]c2c1 (stereo not drawn) [US20250387388, Compound MDI-234]
1.39 nM	0.57 nM	0.27 nM	0.1 nM	CCc1cc(O)c(F)cc1-c1ccc2c(-c3nc4c([nH]3)CN(C3CN(C)CCN3C(=O)N3CCN(C)CC3N3Cc5nc(-c6n[nH]c7cc(-c8cc(F)c(O)cc8CC)ccc67)[nH]c5C3)C4)n[nH]c2c1 (stereo not drawn) [US20250387388, Compound MDI-235]
1.06 nM	0.23 nM	0.2 nM	–	CCc1cc(O)c(F)cc1-c1ccc2c(-c3nc4c([nH]3)CN(C3CN(CC)CCN3C(=O)N3CCN(CC)CC3N3Cc5nc(-c6n[nH]c7cc(-c8cc(F)c(O)cc8CC)ccc67)[nH]c5C3)C4)n[nH]c2c1 (stereo not drawn) [US20250387388, Compound MDI-236]
3.37 nM	0.83 nM	0.57 nM	0.99 nM	CCc1cc(O)c(F)cc1-c1ccc2c(-c3nc4c([nH]3)CN(C3CC(O)CCN3C(=O)N3CCC(O)CC3N3Cc5nc(-c6n[nH]c7cc(-c8cc(F)c(O)cc8CC)ccc67)[nH]c5C3)C4)n[nH]c2c1 (stereo not drawn) [US20250387388, Compound MDI-245]
